One assay deals with MRSA. It is filed as cell-based, Staphylococcus aureus. The protocol: To test the effects of peptides, overnight cultures of wild-type MRSA and MRSA^ΔnorA in TSB media were diluted 1:1,000 in TSB with varying concentrations of peptides, in the presence or the absence of norfloxacin (12.5 μg/ml). All the peptide concentrations contained equal amount of the DMSO vehicle. OD600nm was measured as a function of time in a BioScreen C device at 37° C. with shaking between measurements every 15 min. Three independent experiments were acquired; reported errors reflect the standard deviation among the independent experiments.

Assay [1] has as its target T1, NorA (Staphylococcus aureus, UniProt Q5HHX4).
T1 construct: made in house; host or cells: C43 (DE3) E. coli
Briefly: Fluorescence polarization (FP) binding of FITC-NPI-1 to NorA. Set-up: species or system S. aureus. The protocol: Amphipol-purified NorA underwent an additional round of SEC to remove free amphipol. Fluorescence polarization (FP) experiments were performed on a DTX 880 Multimode Detector (Beckman) at 25° C. with excitation and emission wavelengths set to 485 and 525 nm, respectively. For NorA binding assays, increasing concentrations of NorA were added to wells of 15 nM FITC-NPI-1 in 100 μL solutions of 20 mM Tris pH 7.5, 100 mM NaCl, 10% glycerol, 0.1% pluronic acid, and 1.2% DMSO on black, U-shape 96 well plates (BRANDplates). All samples were incubated for 15 min on a shaking plate. FP values as a function of NorA concentration ([L]) were fit using the following quadratic binding equation in GraphPad Prism to obtain the binding affinity (Kd) for FITC-NPI-1 ([P]T).
Ymax and Yoffset are normalization parameters. The reported Kd value and error for FITC-NPI-1 reflects the average and standard deviation among seven independent experiments, each performed in triplicate.

For assay [2], the target named is T1, NorA. Briefly: Competitive MST peptide binding experiment (NPI-1 versus labelled Fab36). Conditions: NorA 6 μM, Fab36 40 nM, NPI-1 1.5 nM to 50 μM. The arrangement: species or system S. aureus. The protocol: Competitive peptide binding experiments were performed with MST using fluorescently labelled Fab36 as described above. These experiments used fixed concentrations of NorA in PMAL-C8 amphipol at 6 μM and Fab36 at 40 nM, and a variable concentration of NPI-1 from 1.5 nM to 50 μM. Competitive peptide binding experiments were collected with three replicates.

The subject of another assay is MRSA and MRSA^ΔnorA. Briefly: Bacteriostatic/bactericidal effect of norfloxacin on MRSA (CFU). Conditions: norfloxacin 0, 12.5 or 25 μg/ml; 1, 2, 4 hr. In kind it is cell-based, Staphylococcus aureus. The protocol:
MRSA or MRSA^ΔnorA were cultured overnight in 5 ml TSB and diluted 1:1,000 with TSB the next morning. In a round-bottom 96-well plate, 50 μl of the diluted culture was mixed with 50 μl of TSB supplemented with norfloxacin. The final concentration of MRSA or MRSA^ΔnorA was ˜1×10^6 CFU/ml and norfloxacin was 0, 12.5, or 25 μg/ml. The plate was incubated while shaking at 37° C. At 0 hr and after 1, 2, or 4 hr of incubation, CFUs of MRSA or MRSA^ΔnorA were enumerated by serially diluting in PBS and spot plating on TSA plates.

In assay [3] the target is T1, NorA. Briefly: FP competition binding experiment with norfloxacin. The arrangement: species or system S. aureus. Conditions: NorA 50 nM, FITC-NPI-1 15 nM, norfloxacin 10 nM and 2 mM. The method, then: FP competition binding experiments with norfloxacin were performed using FITC-NPI-1 as described above. These experiments used a fixed concentration of NorA in PMAL-C8 amphipol at 50 nM and FITC-NPI-1 at 15 nM with norfloxacin concentrations of 10 nM and 2 mM in 100 μL solutions of 20 mM Tris pH 7.5, 100 mM NaCl, 10% glycerol, 0.1% pluronic acid, and 1.2% DMSO. A control experiment was performed in the same manner but in the absence of NorA. Four independent trials of FP experiments were performed, each in triplicate.

A further assay relates to MRSA^ΔnorA. Briefly: Norfloxacin MIC assays in MRSA (MIC test strips). In kind it is cell-based, Staphylococcus aureus. Conditions: MRSA^ΔnorA expressing wild-type NorA relative to MRSA^ΔnorA alone. The protocol: Wild-type USA300 strain JE2 (“MRSA”) (Fey et al., “A Genetic Resource for Rapid and Comprehensive Phenotype Screening of Nonessential Staphylococcus aureus Genes,” Mbio 4:e00537-00512 (2013), which is hereby incorporated by reference in its entirety) and isogenic strains, norA::bursa (MRSA^ΔnorA) containing empty vector, or hemin-inducible NorA variants were grown overnight at 37° C. in TSB media supplemented with 10 μg/ml chloramphenicol and 1 μM hemin. The cultures were diluted to approximately 1×10^8 CFU/ml and evenly spread on TSA plates supplemented with 5 μg/ml chloramphenicol and 1 μM hemin. The norfloxacin MIC test strips (Liofilchem) were placed in the center of the plate and the plates were incubated for 24 hr at 37° C. The MIC values were read at the intersection of the inhibition eclipse and the strip. At least two independent MIC experiments were acquired for each sample; reported errors reflect the standard deviation among independent experiments.

T1 sequence (Q5HHX4 whole entry): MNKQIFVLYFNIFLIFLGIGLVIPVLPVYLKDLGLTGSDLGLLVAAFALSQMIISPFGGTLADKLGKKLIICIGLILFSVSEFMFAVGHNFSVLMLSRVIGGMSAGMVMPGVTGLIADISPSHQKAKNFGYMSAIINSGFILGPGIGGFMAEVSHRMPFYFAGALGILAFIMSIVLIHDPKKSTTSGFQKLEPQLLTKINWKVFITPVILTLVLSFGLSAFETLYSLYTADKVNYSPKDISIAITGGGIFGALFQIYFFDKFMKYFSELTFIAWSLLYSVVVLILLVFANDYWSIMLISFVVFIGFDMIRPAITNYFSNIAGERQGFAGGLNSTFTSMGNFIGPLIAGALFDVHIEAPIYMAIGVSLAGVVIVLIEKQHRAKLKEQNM

For “H-YYYYAWRVGGYWR-NH2 [NPI-1, NH2-YYYYAWRVGGYWR-CONH2]”, in the assay with MRSA (in the presence of 12.5 μg/ml norfloxacin, 10 hr timepoint, read-out: IC50 growth inhibition of MRSA), the half-maximal inhibitory concentration (IC50) (commonly the concentration at which inhibition is half-maximal) was found to be 720 ± 80 nM. In addition, in the assay with MRSA (peptide alone, no norfloxacin), the “growth of MRSA in the absence of norfloxacin” value is listed as “did not inhibit the growth of MRSA”. Further, binding on NorA [1] was put at a Kd of 10 ± 5 nM. At NorA [1] (NPI-1 relative to Fab36), the “greater affinity to NorA” value is reported as around 14 fold. At NorA [2], the “displacement of bound Fab36 from NorA” value was “could displace bound Fab36 from NorA”.

Take `CCn1cc(C(=O)O)c(=O)c2cc(F)c(N3CCNCC3)cc21` [norfloxacin]: the “effect on the growth of MRSA and MRSA^ΔnorA” value with MRSA and MRSA^ΔnorA is recorded as “bacteriostatic effect”. For the same compound, the “competition with NPI-1 binding to NorA” value at NorA [3] is “compete with NPI-1 binding to NorA”. The “greater norfloxacin MIC” value with MRSA^ΔnorA was 20 fold.

The values are drawn from patent publication US20240327460A1, “NORA INHIBITORS AND METHODS OF USE” (priority 2021, published 2024).
